Biological target: T1, MorFDH (NAD+-dependent formate dehydrogenase from Moraxella sp. C-1) (Moraxella sp., UniProt O08375)
T1 construct: gene fdh; homodimer; 399 residues located, last two C-terminal residues not seen
T1 sequence (O08375 2-402): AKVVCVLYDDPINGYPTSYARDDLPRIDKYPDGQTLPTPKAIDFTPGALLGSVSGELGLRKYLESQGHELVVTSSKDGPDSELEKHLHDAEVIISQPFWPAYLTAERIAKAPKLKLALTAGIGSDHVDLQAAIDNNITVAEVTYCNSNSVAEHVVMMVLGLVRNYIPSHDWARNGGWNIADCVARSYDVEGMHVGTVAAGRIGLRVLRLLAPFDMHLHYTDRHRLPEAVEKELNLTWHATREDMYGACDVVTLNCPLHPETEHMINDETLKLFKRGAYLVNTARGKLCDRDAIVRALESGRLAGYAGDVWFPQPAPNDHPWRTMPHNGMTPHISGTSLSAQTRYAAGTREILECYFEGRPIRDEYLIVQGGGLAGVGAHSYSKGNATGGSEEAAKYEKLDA
Experiment: X-ray crystal structure, […] A
Type: binding
Settings: active site, co-crystallised with 5 mM NAD+ and 5 mM sodium azide, protein in pH 7.0 phosphate, reservoir pH 6.5, 20 C

In the case of [N-]=[N+]=[N-] [azide ion], the “X-ray crystal structure, 1.1 A” value (ternary complex with NAD+, inhibitor, transition-state mimic) is reported as “The NAD ^+ molecule and one azide ion are bound in the active site of the enzyme”.

For NC(=O)c1ccc[n+]([C@@H]2O[C@H](COP(=O)(O)OP(=O)(O)OC[C@H]3O[C@@H](n4cnc5c(N)ncnc54)[C@H](O)[C@@H]3O)[C@@H](O)[C@H]2O)c1 [NAD+], the “X-ray crystal structure, 1.1 A” value (ternary complex with azide) was “The NAD ^+ molecule and one azide ion are bound in the active site of the enzyme”.

— paper PMC3347530, “Atomic Resolution Crystal Structure of NAD^+-Dependent Formate Dehydrogenase from Bacterium Moraxella sp. C-1” (Acta Naturae, 2009)
